According to US20230181535A1, “UBIQUITIN-LIGASE INHIBITORS FOR THE TREATMENT OF CANCER” (FUNDACIÓN PROFESOR NOVOA SANTOS, priority 2020, published 2023):
Entries after “also recorded” stand apart in the source; their conditions may differ.

Test system: Hakai-MDCK xenograft tumours
Test: Tumour xenograft model (Hakai-MDCK cells in nude mice)
Type: in vivo
Description: Xenografts experiments were performed in Experimental Surgery Unit—Technological Training Center from INIBIC in compliance with the European Community Law (86/609/EEC) and the Spanish law (R.D. 53/2013). The experiment was approved by the Ethics Committee for Animal Experimentation of Xerencia de Xestion Integrada da Coruna (XXIAC). Mice were in a 12/12 hours light/dark cycle with water and food available ad libitum. Six weeks old athymic nu/nu mice were randomly distributed in groups. One million of MDCK cells, resuspended in DMEM without serum and antibiotic, were subcutaneously inoculated in both flanks in two groups of 3 animals. The same number of Hakai-MDCK cells were injected in two groups of 4 animals. […] Then, half of the animals were treated with Hakin-1 (5 mg/kg) and the other half with the same concentration of DMSO every 3 days. Tumour outgrowth was monitored twice a week taking measurements of tumour length (L) and width (W) with an electronic calipter. Tumour volume was calculated as pLW2/6. Forty days after inoculation, animals were sacrificed. Tumours, lungs, kidneys and livers were collected and fixed in 4% PFA and embedded in paraffin blocks for histology and/or immunohistochemistry (IHC) analyses.
Tumours and tissues were deparaffinised, rehydrated and stained with haematoxylin and eosin (H&E) as previously described. Tumour sections (4 μm) were also deparaffinised and hydrated for immunohistochemistry. Antigen retrieval was carried by heating the samples (2100 Retriever; PickCell Laboratories) in citrate buffer (Dako REAL, Denmark) or in EDTA buffer. Then, endogenous peroxidase activity was blocked with peroxidase blocking (DakoCytomation, Denmark). Samples were blocked and permeabilized with 0.2% BSA and 0.1% Tx-100 for 1 hour and incubated with the indicated primary antibodies overnight at 4° C. in a wet chamber. Slides were incubated for 1 hour at room temperature with the secondary antibody and detection was carried our using DAB (DakoReal Envision kit) according to manufacturer instructions. Finally, nuclei were counterstained with Gill's Hematoxylin and mounted with DePeX. Pictures were taken with an Olympus microscope. Quantification of images was performed taken 5 photographs of each animal with Image J programme and the represented results are shown as mean±SEM. The number of mitosis was counted in sections stained with H&E. In this case, ten pictures of each tumour were taken with an Olympus BX50 microscope (objective 40×) and the number of mitosis was counted manually. Results are represented as mean±SEM and a representative photograph is shown for each condition.
Real-time PCR was used to study the presence of metastasis in the lung mice. Primers for HA epitope and Hakai present in ectopic HA-tagged Hakai expressed in MDCK-Hakai cells (5′-[…]-3′; 5″-[…]-3′) were used for the quantification. Primers for mouse apolipoprotein B (apob) (5′-[…]-3′; 5′-[…]-3′) were used as endogenous control. MDCK cell line was used as negative control. Lung DNA was extracted from 10-15 sections of paraffin blocks (4 μm) using with QIAamp DNA Mini Kit (Qiagen). The amplification and quantification of DNA was carried by quantitative PCR in technical triplicates by using a LightCycler 480 real-time lightcycler (Roche). Relative DNA levels were calculated by 2^−ΔΔCt method.
Tissue sections from tumours were deparaffinised and rehydrated using standard protocols. The slides were rinsed twice with PBS and treated with citrate buffer buffer (Dako REAL, Denmark) in microwave at 350 W for 5 min. The tissue sections were then analysed with an in situ Cell Death Detection Kit, Fluorescein (Roche) following the manufacturer's instructions. Then, slides were incubated with Hoechst for 5 min in darkness. The reaction was visualized under an epifluorescence Olympus microscope using 20× objective.

[1] = Hakai-MDCK xenograft tumours, immunohistochemistry
[2] = Hakai-MDCK xenograft, nude mice, 5 mg/kg

Compound: O=C(O)c1ccc(-n2nnnc2SCC(=O)c2ccc([N+](=O)[O-])cc2)cc1 [Hakin-1, 4-(5-[2-(4-nitrophenyl)-2-oxoethyl]thiol-1H-tetrazol-1-yl)benzoic acid]
- micrometastasis in lung (quantitative PCR of HA-tagged Hakai DNA) (Hakai-MDCK xenograft mice, vs DMSO treated mice): significant reduction of micrometastasis
- Cortactin expression (immunohistochemistry) (Hakai-MDCK xenograft tumours): recovered
- apoptosis (TUNEL assay) (Hakai-MDCK xenograft tumours): does not affect cell apoptosis; also recorded: no effect on apoptosis was detected
- mitotic-index (Hakai-MDCK xenograft tumours, H&E): markedly reduce
- number of Ki67-positive cells [1]: markedly reduce
- number of blood vessels (CD31 angiogenic marker) [1]: strong reduction on the number of blood vessels
- N-cadherin mesenchymal marker expression (immunohistochemistry) (Hakai-MDCK xenograft tumours, vs DMSO treated mice): strongly reduced
- tumour cell morphology (H&E) [2]: induction of tumour differentiation and an increase in cytoplasm size
- tumour-cell infiltration in blood vessels (H&E) [2]: no infiltration was detected
- xenograft tumour growth (Hakai-MDCK xenograft, nude mice, 5 mg/kg every 3 days, vs DMSO, 5 mg/kg): inhibits tumour growth; also recorded: potent effect on inhibiting xenograft tumour growth; also recorded: strong antitumor effect; also recorded: inhibited tumor growth
- tissue damage / systemic toxicity (H&E of organs) (nude mice treated with 5 mg/kg, 5 mg/kg): Intact cell morphology and tissue structure of liver and kidney; also recorded: no damage was observed in lung and kidney tissues; also recorded: apparently without systemic toxicity
